These results are taken from patent publication US6355464B1, “M. tuberculosis RNA polymerase alpha subunit” (Anadys Pharmaceuticals, Inc., priority 1996, dated 2002).

The target in this experiment is M. tuberculosis RNA polymerase (Mycobacterium tuberculosis, UniProt P9WGY7+P9WGY9+P9WGZ1). Briefly: In vitro (cell-free) high-throughput transcription screen with reconstituted RNA polymerase and T101 promoter template. The experiment is classed as biochemical. The settings on record: rifampicin at 30 nM; control compound; TCA-precipitated [α-32P]-UTP-labelled RNA, 30 min at 25° C. The method, then: High-throughput screens for anti-tuberculosis agents may be performed using either an in vitro or in vivo format. In either case, the ability of test compounds to inhibit M. tuberculosis RNA polymerase-driven transcription of M. tuberculosis promoters is tested. Typically, a strong promoter such as T101 is used for the test reactions. The sequence of the T101 promoter is: identified by SEQ. ID. NO. 15 and read as follows.
The following procedure is used for cell-free high-throughput screening. A Tomtec Quadra 96-well pipetting station is used to add the reaction components to polypropylene 96-well dishes. 5 μl aliquots of test compounds dissolved in DMSO (or DMSO alone as a control) are added to wells. This is followed by 20 μl of the RNA polymerase mixture, which consists of: 10 mM DTT, 200 mM KCl, 10 mM Mg^+2, 1.5 μM bovine serum albumin, and 0.25 μg reconstituted RNA polymerase. […]
After incubation for 30 min at 25° C., the reaction is stopped by addition of 150 μl 10% trichloroacetic acid (TCA). […] The wells of the microtiter plate and the filter are washed twice with 5% TCA and bound radioactivity is determined usinjg a Wallac microbeta 1450 scintillation counter. Inhibitory activity due to the test compound is calculated according to the formula: [formula] […]

Chain of M. tuberculosis RNA polymerase (P9WGY7 whole entry, looked up): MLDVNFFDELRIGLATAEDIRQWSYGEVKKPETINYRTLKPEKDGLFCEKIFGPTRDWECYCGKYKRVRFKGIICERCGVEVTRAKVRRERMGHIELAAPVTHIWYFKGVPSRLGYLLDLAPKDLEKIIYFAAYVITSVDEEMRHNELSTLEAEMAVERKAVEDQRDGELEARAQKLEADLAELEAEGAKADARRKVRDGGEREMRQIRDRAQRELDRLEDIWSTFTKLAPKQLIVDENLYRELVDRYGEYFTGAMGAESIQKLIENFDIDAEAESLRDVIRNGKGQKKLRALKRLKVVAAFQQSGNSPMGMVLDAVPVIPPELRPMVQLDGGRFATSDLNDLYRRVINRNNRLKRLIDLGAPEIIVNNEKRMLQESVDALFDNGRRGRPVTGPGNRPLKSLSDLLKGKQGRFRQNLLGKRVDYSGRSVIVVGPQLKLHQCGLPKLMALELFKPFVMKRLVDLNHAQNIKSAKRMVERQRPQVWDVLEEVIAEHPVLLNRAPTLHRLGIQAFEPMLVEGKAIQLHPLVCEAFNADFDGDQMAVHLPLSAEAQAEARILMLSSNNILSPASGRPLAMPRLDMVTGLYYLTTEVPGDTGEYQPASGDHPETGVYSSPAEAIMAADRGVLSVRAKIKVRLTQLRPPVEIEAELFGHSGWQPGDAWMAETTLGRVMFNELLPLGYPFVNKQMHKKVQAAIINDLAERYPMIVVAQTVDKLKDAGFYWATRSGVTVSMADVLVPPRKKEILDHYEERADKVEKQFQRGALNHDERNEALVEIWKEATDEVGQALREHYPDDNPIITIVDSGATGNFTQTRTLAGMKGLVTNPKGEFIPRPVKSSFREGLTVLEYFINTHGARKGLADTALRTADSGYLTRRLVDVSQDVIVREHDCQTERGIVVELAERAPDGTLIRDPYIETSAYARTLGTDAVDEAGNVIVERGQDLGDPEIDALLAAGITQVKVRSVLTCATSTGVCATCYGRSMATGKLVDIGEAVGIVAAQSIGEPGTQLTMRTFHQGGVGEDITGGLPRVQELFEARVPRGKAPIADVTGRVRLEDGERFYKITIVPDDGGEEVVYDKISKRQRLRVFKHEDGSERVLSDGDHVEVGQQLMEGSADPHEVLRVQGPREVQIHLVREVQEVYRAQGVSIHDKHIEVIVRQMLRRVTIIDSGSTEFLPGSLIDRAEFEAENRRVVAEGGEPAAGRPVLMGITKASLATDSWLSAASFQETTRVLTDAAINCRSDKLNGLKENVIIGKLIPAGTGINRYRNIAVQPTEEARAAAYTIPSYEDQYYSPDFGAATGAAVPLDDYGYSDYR
Chain of M. tuberculosis RNA polymerase (P9WGY9 whole entry, looked up): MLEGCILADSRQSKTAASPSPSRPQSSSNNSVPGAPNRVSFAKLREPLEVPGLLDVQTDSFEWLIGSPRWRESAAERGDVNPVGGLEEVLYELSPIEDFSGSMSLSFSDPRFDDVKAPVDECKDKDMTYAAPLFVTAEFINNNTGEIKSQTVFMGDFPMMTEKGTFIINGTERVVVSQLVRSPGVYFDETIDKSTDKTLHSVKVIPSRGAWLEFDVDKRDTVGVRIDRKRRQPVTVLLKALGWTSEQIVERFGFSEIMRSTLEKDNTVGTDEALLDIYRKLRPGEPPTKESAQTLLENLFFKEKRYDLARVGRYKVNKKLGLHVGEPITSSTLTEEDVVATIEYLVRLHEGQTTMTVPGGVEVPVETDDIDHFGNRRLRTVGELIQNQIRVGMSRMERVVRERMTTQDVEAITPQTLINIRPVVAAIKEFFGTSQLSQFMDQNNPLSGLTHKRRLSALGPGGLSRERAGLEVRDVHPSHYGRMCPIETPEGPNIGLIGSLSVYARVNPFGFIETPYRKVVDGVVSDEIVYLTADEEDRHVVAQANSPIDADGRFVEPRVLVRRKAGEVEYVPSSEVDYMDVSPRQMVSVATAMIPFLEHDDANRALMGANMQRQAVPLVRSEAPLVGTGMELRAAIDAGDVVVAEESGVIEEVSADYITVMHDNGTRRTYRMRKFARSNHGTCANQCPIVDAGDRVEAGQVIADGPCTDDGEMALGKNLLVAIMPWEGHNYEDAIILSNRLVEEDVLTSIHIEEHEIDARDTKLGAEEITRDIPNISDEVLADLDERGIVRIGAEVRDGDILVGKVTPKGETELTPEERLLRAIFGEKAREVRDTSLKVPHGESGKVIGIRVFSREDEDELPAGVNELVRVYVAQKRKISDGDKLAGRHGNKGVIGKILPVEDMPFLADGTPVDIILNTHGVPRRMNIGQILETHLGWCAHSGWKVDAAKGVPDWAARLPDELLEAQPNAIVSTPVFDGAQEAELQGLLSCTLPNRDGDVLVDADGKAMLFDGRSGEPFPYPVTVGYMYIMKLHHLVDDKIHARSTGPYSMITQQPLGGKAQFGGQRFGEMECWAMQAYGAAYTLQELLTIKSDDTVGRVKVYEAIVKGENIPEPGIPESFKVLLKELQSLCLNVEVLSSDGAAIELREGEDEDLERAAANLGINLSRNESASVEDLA
Chain of M. tuberculosis RNA polymerase (P9WGZ1 whole entry, looked up): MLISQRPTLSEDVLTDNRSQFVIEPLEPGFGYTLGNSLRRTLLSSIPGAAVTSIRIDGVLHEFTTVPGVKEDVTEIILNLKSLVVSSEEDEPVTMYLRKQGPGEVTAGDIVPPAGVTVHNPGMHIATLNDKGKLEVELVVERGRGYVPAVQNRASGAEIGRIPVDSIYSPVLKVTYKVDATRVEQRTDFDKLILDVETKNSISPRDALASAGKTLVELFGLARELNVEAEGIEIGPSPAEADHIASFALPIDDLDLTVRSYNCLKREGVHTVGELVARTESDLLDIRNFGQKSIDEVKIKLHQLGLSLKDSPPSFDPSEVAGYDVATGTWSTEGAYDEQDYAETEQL

On to `CO[C@H]1/C=C/O[C@@]2(C)Oc3c(C)c(O)c4c(O)c(c(/C=N/N5CCN(C)CC5)c(O)c4c3C2=O)NC(=O)/C(C)=C\C=C\[C@H](C)[C@H](O)[C@@H](C)[C@@H](O)[C@@H](C)[C@H](OC(C)=O)[C@@H]1C` [rifampicin], for which the inhibition of transcription was 50-75%.
